Test results taken from patent US8778925B2, “Pyridine and pyrimidine based compounds as Wnt signaling pathway inhibitors for the treatment of cancer” (Cancer Research Technology Ltd., priority 2008, dated 2014).

tested on: not given; experiment: not given; settings: not given

melting point [°C] | SMILES
182 to 184 | Cc1cncnc1N1CCC(C(N)=O)CC1
256 to 258 | O=C(C1CCN(c2c(Cl)cncc2Cl)CC1)N1CCNCC1 [Example E20, (1-(3,5-dichloropyridin-4-yl)piperidin-4-yl)(piperazin-1-yl)methanone]
132 to 134 | O=C(c1ccccc1)N1CCN(c2c(Cl)cncc2Cl)CC1
144 to 146 | CC(=O)N1CCN(c2c(Cl)cncc2Cl)CC1 [Example E9, 1-(4-(3,5-dichloropyridin-4-yl)piperazin-1-yl)ethanone]
157 to 159 | O=C(NCCNc1c(Cl)cncc1Cl)C1CCN(c2c(Cl)cncc2Cl)CC1 [Example E5, 1-(3,5-dichloropyridin-4-yl)-N-(2-(3,5-dichloropyridin-4-ylamino)ethyl)piperidine-4-carboxamide]
174 to 177 | O=C(NCCNCC1CCCCC1)C1CCN(c2c(Cl)cncc2Cl)CC1 [Example E16, N-(2-(cyclohexylmethylamino)ethyl)-1-(3,5-dichloropyridin-4-yl)piperidine-4-carboxamide]
220 to 222 | NC(=O)C1CCN(c2c(Br)cncc2-c2ccccc2)CC1 [Example E39, 1-(3-bromo-5-phenylpyridin-4-yl)piperidine-4-carboxamide]
161 to 163 | NC(=O)C1CCN(c2c(Cl)cncc2Cl)C1 (stereo not shown) [Example E21, 1-(3,5-dichloropyridin-4-yl)pyrrolidine-3-carboxamide]
209 to 211 | O=C(NCCNC(=O)C1CCN(c2c(Cl)cncc2Cl)CC1)c1ccccc1 [Example E19, N-(2-benzamidoethyl)-1-(3,5-dichloropyridin-4-yl)piperidine-4-carboxamide]

Further lines, the molecule ahead of its results:

SMILES | melting point [°C]
NC(=O)C1CCN(c2ncncc2Br)CC1 [Example E29, 1-(5-bromopyrimidin-4-yl)piperidine-4-carboxamide] | 188 to 190
N#CC1CCN(c2c(Br)cncc2Br)C1 (stereo not shown) [Example E23, 1-(3,5-dibromopyridin-4-yl)pyrrolidine-3-carbonitrile] | 159 to 161
NC(=O)C1CCN(c2ncncc2Cl)CC1 | 201 to 202
O=C(NCCN(Cc1ccccc1)Cc1ccccc1)C1CCN(c2c(Cl)cncc2Cl)CC1 [Example E17, N-(2-(dibenzylamino)ethyl)-1-(3,5-dichloropyridin-4-yl)piperidine-4-carboxamide] | 147 to 149
O=C(NCCN(CC1CCCCC1)CC1CCCCC1)C1CCN(c2c(Cl)cncc2Cl)CC1 [Example E18, N-(2-(bis(cyclohexylmethyl)amino)ethyl)-1-(3,5-dichloropyridin-4-yl)piperidine-4-carboxamide] | 236 to 238

tested on: Wnt pathway; experiment: Luciferase reporter cell based assay (ER-DSH HEK293 cells); settings: Homo sapiens, TCF-dependent transcription induced by estrogen (2 μM), reporter activity at 24 hours, read-out: IC50 in Luciferase reporter assay (ER-DSH HEK293 cells) assay described in Example 92
Method: Inhibitory activity of the Wnt pathway was assessed using a luciferase reporter cell based assay. A luciferase reporter cell line was developed in HEK293 cells, which contained an estrogen receptor-DSH (ER-DSH) construct and a TCF-luciferase-IRES-GFP construct.
A high-throughput assay was performed by inducing TCF-dependent transcription in the ER-DSH HEK293 cell line by the addition of estrogen (2 μM) resulting in at least a 14-fold increase in reporter activity measured at 24 hours. […]

IC50 [µM] | SMILES
0.44 | Cc1nn(C)cc1-c1cncc(Cl)c1N1CCC(C(N)=O)CC1 [Example E47, 1-(3-chloro-5-(1,3-dimethyl-1H-pyrazol-4-yl)pyridin-4-yl)piperidine-4-carboxamide]
0.17 | COc1ccc(-c2cncc(Cl)c2N2CCC(C(N)=O)CC2)cc1OC [Example E4, 1-(3-chloro-5-(3,4-dimethoxyphenyl)pyridin-4-yl)piperidine-4-carboxamide]
7.66 | Clc1cncc(Cl)c1N1CCC(c2ncco2)CC1 [Example E35, 2-(1-(3,5-dichloropyridin-4-yl)piperidin-4-yl)oxazole]
12.6 | CNC(=O)C1CCN(c2c(Cl)cncc2Cl)CC1 [Example E1, 1-(3,5-dichloropyridin-4-yl)-N-methylpiperidine-4-carboxamide]
12.1 | CC(=O)N1CCN(c2c(Cl)cncc2Cl)CC1 [Example E9, 1-(4-(3,5-dichloropyridin-4-yl)piperazin-1-yl)ethanone]
0.11 | NC(=O)C1CCN(c2c(Cl)cncc2-c2ccc(F)cc2)CC1 [Example E50, 1-(3-chloro-5-(4-fluorophenyl)pyridin-4-yl)piperidine-4-carboxamide]
0.44 | NC(=O)C1CCN(c2c(Cl)cncc2-c2ccncc2)CC1 [Example E65, 1-(5-chloro-3,4′-bipyridin-4-yl)piperidine-4-carboxamide]
3.43 | O=C1NCCC12CCN(c1c(Cl)cncc1Cl)CC2 [Example E59, 8-(3,5-dichloropyridin-4-yl)-2,8-diazaspiro[4.5]decan-1-one]
0.09 | N#CC1CCN(c2c(Cl)cncc2-c2ccccc2)CC1 [Example E86, 1-(3-chloro-5-phenylpyridin-4-yl)piperidine-4-carbonitrile]
22.9 | NC(=O)C1CCN(c2ccncc2Cl)CC1 [Example E12, 1-(3-chloropyridin-4-yl)piperidine-4-carboxamide]
0.033 | O=C1NCCC12CCN(c1c(Cl)cncc1-c1ccccc1)CC2 [Example E60, 8-(3-chloro-5-phenylpyridin-4-yl)-2,8-diazaspiro[4.5]decan-1-one]
0.76 | NC(=O)C1CCN(c2c(Cl)cncc2Cl)C1 (stereo not shown) [Example E21, 1-(3,5-dichloropyridin-4-yl)pyrrolidine-3-carboxamide]
30 | CN(C)C(=O)C1CCN(c2c(Cl)cncc2Cl)CC1 [Example E2, 1-(3,5-dichloropyridin-4-yl)-N,N-dimethylpiperidine-4-carboxamide]

Continued, molecule first:

SMILES | IC50 [µM]
NC(=O)C1CCN(c2ncncc2Br)CC1 [Example E29, 1-(5-bromopyrimidin-4-yl)piperidine-4-carboxamide] | 16.2
COc1ccc(-c2cncc(Cl)c2N2CCC(C(N)=O)CC2)cc1 [Example E43, 1-(3-chloro-5-(4-methoxyphenyl)pyridin-4-yl)piperidine-4-carboxamide] | 0.032
NC(=O)C1CCN(c2c(Br)cncc2Br)CC1 [Example E27, 1-(3,5-dibromopyridin-4-yl)piperidine-4-carboxamide] | 0.21
O=C(O)C1CCN(c2c(Cl)cncc2-c2ccccc2)CC1 [Example E87, 1-(3-chloro-5-phenylpyridin-4-yl)piperidine-4-carboxylic acid] | 0.74
COc1ccc(-c2cnccc2N2CCC(C(N)=O)CC2)cc1 [Example E37, 1-(3-(4-methoxyphenyl)pyridin-4-yl)piperidine-4-carboxamide] | 1.64
NCCNC(=O)C1CCN(c2c(Cl)cncc2Cl)CC1 [Example E13, N-(2-aminoethyl)-1-(3,5-dichloropyridin-4-yl)piperidine-4-carboxamide] | 7
NC(=O)C1CCN(c2ncncc2-c2ccccc2)CC1 [Example E33, 1-(5-phenylpyrimidin-4-yl)piperidine-4-carboxamide] | 5
NC(=O)C1CCN(c2ccncc2-c2ccccc2)CC1 [Example E68, 1-(3-phenylpyridin-4-yl)piperidine-4-carboxamide] | 1.15
COc1ccc(-c2cncnc2N2CCC(C(N)=O)CC2)cc1 [Example E85, 1-(5-(4-methoxyphenyl)pyrimidin-4-yl)piperidine-4-carboxamide] | 1.58
COc1ccc(-c2cncc(Cl)c2N2CCC(C(N)=O)C2)cc1 (stereo not shown) [Example E74, 1-(3-chloro-5-(4-methoxyphenyl)pyridin-4-yl)pyrrolidine-3-carboxamide] | 0.26
